Results reported in PMC3436892, “Novel African Trypanocidal Agents: Membrane Rigidifying Peptides” (PLoS ONE, 2012).

Assays:
[1] = system: interfacial region of the plasma membrane of BSF T. b. brucei; test: TMA-DPH fluorescence anisotropy (interfacial membrane rigidity); assay type: cell-based, Trypanosoma brucei brucei; conditions: live BSF cells 3×10^6 cells/mL in PBS, 0.5 µM TMA-DPH, 37°C, increasing SHP concentrations, triplicate (Fig. 2b)
Procedure: The plasma membrane rigidity of live T. b. brucei was determined by measuring the fluorescence depolarization of diphenyl-1,3,5- hexatriene p-toluenesulfonate (DPH) or 1-(4-trimethylammoniumphenyl)-6-diphenyl-1,3,5- hexatriene p-toluenesulfonate (TMA-DPH; Invitrogen T204). Cells were washed 3 times with and resuspended in phosphate buffered saline at a density of 3×10^6 cells/mL. The anisotropic probes were added to a final concentration of 0.5 µM and allowed to intercalate into the cell membrane for 1 h in the dark. Anisotropic values were acquired via the software function of a PerkinElmer Life Sciences LS55 spectrofluorometer. Samples were excited at 358 nm, and emission was read at 430 nm, with 10-nm excitation and emission slit widths. Temperature was maintained at 37°C by means of the PerkinElmer LS55 Biokinetics accessory. Data were corrected for light scattering with an unlabeled sample of cells, and anisotropy was calculated according to the equation r = (IVV - GIVH)/(IVV + 2GIVH), where r is the anisotropy value, IVV is the emission intensity acquired with the excitation- and emission-polarizing filters set vertically, G is the instrument correction factor, and IVH is the emission intensity acquired with the excitation-polarizing filter set vertically and the emission-polarizing filter set horizontally. […]

[2] = Circular dichroism spectroscopy; assay type: physicochemical
Procedure: Spectra were recorded with a Jasco J-710 spectropolarimeter in a 1 mm quartz cuvette. Measurements were performed with a final concentration of 15 µM SHP-1 added from a stock of ethanol-solubilized peptide (final ethanol concentration 7.5 %) in 10 mM K2PO4, 50 mM Na2PO4, pH 7.5. Lipid associated peptide spectra were recorded with the addition of 0.1 µm unilamellar egg phosphatidylcholine liposomes at a peptide to lipid ration of 0.3. Spectra were averaged from four scans and the appropriate buffer scans were subtracted.

[3] = system: Bloodstream developmental forms of T. vivax; test: 2 h in vitro killing assay, T. vivax; assay type: cell-based, Trypanosoma vivax strain ILRAD V34; conditions: 37°C, 1×10^7 cells/mL, HMI 9 with 20 % bovine serum, hemocytometer, at concentrations similar to BSF T. brucei (Fig. 1b)
Procedure: (§1) Light microscopy based trypanosome killing assays were performed as previously described in detail, [10], [21], [22]. Metacyclic Trypanosoma brucei brucei strain STIB247 were obtained from dissection of the salivary glands of infected tsetse flies. Newly hatched Glossina morsitans morsitans (24–48 h post eclosion) were fed two defibrinated horse blood meals containing 2×10^6 mL^-1 trypanosomes on two separate days. Flies were then maintained at 25°C in 75 % relative humidity and fed maintenance blood meals three times per week. Following day 20–30, flies were harvested and salivary glands were dissected out and placed into HMI 9 media containing 10 % fetal bovine serum for 30 minutes. Metacyclic cells were expelled into the media by the residual peristalsis of the salivary glands. Cells were collected via centrifugation and maintained in HMI 9 media with 20 % fetal bovine serum at 37°C in 5 % CO2 until use. Killing assays were conducted with 1×10^4 cells/mL in HMI 9 media containing 10 % fetal bovine serum. Live cells were scored via hemocytometer after 2 h incubation. Trypanosoma vivax strain ILRAD V34 and Trypanosoma congolense strain IL3000 were grown from stabilites in donor ICR mouse (Harlan, United Kingdom). […] Cells were incubated at 37°C for 2 h and live cells were scored visually via hemocytometer. […]

BSF T. b. brucei VSG = test: FRAP of surface VSG; assay type: cell-based, strain 427; conditions: 8 µM peptide, 10 min at 37°C, cells immobilized in gelatin, line FRAP at 20°C (Fig. 2c)
Procedure: Bloodstream form T. b. brucei, strain 427, expressing VSG MITat1.6 were cultivated in HMI 9 media with 10% fetal calf serum. 1×10^7 cells were washed three times with ice cold trypanosome dilution buffer (TDB; 5 mM KCl, 80 mM NaCl, 1 mM MgSO4, 20 mM Na2HPO4, 2 mM NaH2PO4, 20 mM glucose, pH 7.6). The cell density was adjusted to 1×10^8 cells/mL and labeling of surface proteins was achieved by incubation with 1 µM sulfo-NHS coupled Atto 488 fluorescent dye (ATTO-TEC GmbH, Siegen) for 15 min on ice. After incubation the cells were washed three times with ice cold TDB to remove unbound dye. Labeled T. b. brucei cells were incubated with 8 µM SHP-1 for 10 min at 37°C. The fluorescently labeled cells were mixed 1∶3 with 10% Type-A gelatin from porcine skin (Sigma-Aldrich, Steinheim) in PBS, pH 7.8, at 37°C. 4 µL of the cell gelatin mixture was applied into a cover slide sandwich and mounted into a temperature controlled sample holder. The sample holder was cooled to 20°C until the cells were immobilized. Samples of SHP-1 treated and untreated MITat 1.6 wt cells were prepared identically. […] 10 pre-bleach and 100 post-bleach images were recorded at 2fps. VSG mobile fractions were determined according to Phair et al. (2004) using double normalization. The mobile fraction refers to the percentage of mobile VSG molecules within the measured region. […]

BSF T. b. brucei = conditions: veterinary and human pathogenic BSF T. brucei; cited from earlier work
Description: Specificity of SHP is mediated by a high degree of fluidity in the plasma membrane of BSF cells. […] Human cells, including erythrocytes, are refractory to SHP concentrations orders of magnitude higher than necessary to kill BSF T. brucei.

[4] = system: Bloodstream developmental forms of T. congolense; test: 2 h in vitro killing assay, T. congolense; assay type: cell-based, Trypanosoma congolense strain IL3000; conditions: 37°C, 1×10^7 cells/mL, HMI 9 with 20 % bovine serum, hemocytometer, at concentrations similar to BSF T. brucei (Fig. 1b)
Procedure: as §1

Live BSF T. b. brucei = conditions: previously reported; cited from earlier work
Description: Treatment of BSF African trypanosomes with SHP results in multiple physiological alterations. Addition of SHP-1 to BSF trypanosomes, which were subsequently immobilized in gelatin, decreases the fraction of laterally mobile surface exposed VSG (Fig. 2c). This effect may be directly due to increased membrane rigidity, or indirectly due to a decrease in the mobility of membrane spanning proteins and potential interactions with the VSG. Another physiological consequence, that may or may not be related to membrane rigidification, is SHP-induced changes in cell motility. Previously we reported that ...

Sequence: SDLGAVISLLLWGRQLFA [SHP-1, trypanocidal small hydrophobic peptide derived from an apolipoprotein, with characteristics of a secretory signal peptide]
- interfacial rigidity of the plasma membrane (TMA-DPH fluorescence depolarization) [1]: increased the interfacial rigidity
- secondary structure in the presence of lipid (CD) ([2]; 15 µM peptide with 0.1 µm unilamellar egg phosphatidylcholine liposomes, peptide to lipid ratio 0.3, pH 7.5, peak 193 nm, minimum 208 nm): α-helical structure
- secondary structure in solution (CD) ([2]; 15 µM peptide, 7.5 % ethanol, 10 mM K2PO4, 50 mM Na2PO4, pH 7.5, peak 195 nm, crossover about 205 nm, minimum 218 nm): β-sheet conformation
- susceptibility of BSF T. vivax to killing [3]: susceptible to killing
- fraction of laterally mobile surface exposed VSG (BSF T. b. brucei VSG): decreases
- susceptibility of BSF T. brucei to killing (BSF T. b. brucei): uniquely susceptible to killing
- susceptibility of BSF T. congolense to killing [4]: susceptible to killing
- effect on motility of BSF trypanosomes (Live BSF T. b. brucei): initial hyperactivation followed by constricted motility and death
